Source: patent US12076373B2, “Formulations for oral administration of active agents” (Entera Bio Ltd., priority 2015, dated 2024)

Columns and labels:
[1] = Open label comparative pharmacokinetic study of oral teriparatide tablet in healthy volunteers; format: in vivo, human; conditions: oral tablet 0.75 mg teriparatide + SNAC + SBTI, with 150 ml of 3 mg/ml sodium bicarbonate solution vs 150 ml water; ten healthy volunteers, fasted; plasma
Description: An open label comparative pharmacokinetic study was performed on ten healthy volunteers. On different visits, each volunteer received the same oral tablet containing 0.75 mg of teriparatide, a recombinant form of parathyroid hormone (1-34) (PTH(1-34)). In the first visit, the tablet was administered with 150 ml water, whereas in the second visit the tablet was administered with 150 ml of 3 mg/ml sodium bicarbonate aqueous solution.
The formulation was composed of teriparatide (0.75 mg), SNAC (sodium 8-N-(2-hydroxybenzoyl)aminocaprylate), soybean trypsin inhibitor (SBTI) and a small amount of magnesium stearate.
Tablets were administered in the morning after an 8-hour overnight fast. At each visit a standard meal was provided 3 hours after drug administration. […] There was a two week period between the two visits.
To determine PTH(1-34) concentrations, blood samples (4 ml each) were drawn via an indwelling catheter from the forearm vein at predetermined time points during each visit. The cannula was flushed with 1.5 ml normal saline after each sampling. In addition, to avoid sample dilution, 1 ml of blood was drawn and discarded before the next sample. […] PTH(1-34) levels were measured using an IDS-iSYS automated assay for the measurement of intact PTH(1-34) in human plasma or serum. […] Relative absorption was determined based on the AUC (area under curve) parameter.

[2] = Dissolution test: release of SNAC from tablet formulations in simulated gastric buffer; format: physicochemical; conditions: tablet with 100 mg sodium bicarbonate vs tablet without, trypsin inhibitor, teriparatide, 100 ml simulated gastric buffer without pepsin, pH 2.0, 37° C., USP 23 Apparatus 2, 50 rpm
Description: The tablets were in a form of a homogeneous mixture.
Each tablet formulation was subjected to a dissolution test in 100 ml of simulated gastric buffer (without pepsin), pH 2.0, at 37° C., according to USP 23 Apparatus 2 (paddle) with 50 rotations per minute. The amount of released SNAC in each sample was determined chromatographically, using an HPLC apparatus with Cosmosil™ 5 C18-MS-II (4.6 ID×250 mm) column. Mobile phase consisted of 50% acetonitrile and 50% phosphoric acid solution (0.1%). Flow rate was 1 ml/minute and injection volume was 25 μl. Amount of released SNAC was calculated as a percentage of the amount of SNAC in the formulation.

| increase in absorption of PTH(1-34) (relative absorption based on AUC) [1] | dissolution of SNAC in tablets (released SNAC as a percentage of the amount of SNAC in the formulation) [2] | SMILES |
| --- | --- | --- |
| about 35% |  | CC[C@H](C)[C@H](NC(=O)[C@H](CCC(=O)O)NC(=O)[C@H](CO)NC(=O)[C@@H](NC(=O)[C@@H](N)CO)C(C)C)C(=O)N[C@@H](CCC(N)=O)C(=O)N[C@@H](CC(C)C)C(=O)N[C@@H](CCSC)C(=O)N[C@@H](Cc1cnc[nH]1)C(=O)N[C@@H](CC(N)=O)C(=O)N[C@@H](CC(C)C)C(=O)NCC(=O)N[C@@H](CCCCN)C(=O)N[C@@H](Cc1cnc[nH]1)C(=O)N[C@@H](CC(C)C)C(=O)N[C@@H](CC(N)=O)C(=O)N[C@@H](CO)C(=O)N[C@@H](CCSC)C(=O)N[C@@H](CCC(=O)O)C(=O)N[C@@H](CCCN=C(N)N)C(=O)N[C@H](C(=O)N[C@@H](CCC(=O)O)C(=O)N[C@@H](Cc1c[nH]c2ccccc12)C(=O)N[C@@H](CC(C)C)C(=O)N[C@@H](CCCN=C(N)N)C(=O)N[C@@H](CCCCN)C(=O)N[C@@H](CCCCN)C(=O)N[C@@H](CC(C)C)C(=O)N[C@@H](CCC(N)=O)C(=O)N[C@@H](CC(=O)O)C(=O)N[C@H](C(=O)N[C@@H](Cc1cnc[nH]1)C(=O)N[C@@H](CC(N)=O)C(=O)N[C@@H](Cc1ccccc1)C(=O)O)C(C)C)C(C)C [PTH(1-34), teriparatide] |
|  | considerably enhanced | O=C(O)CCCCCCCNC(=O)c1ccccc1O [SNAC, sodium 8-N-(2-hydroxybenzoyl)aminocaprylate] |
